Results on two compounds are retold here after ChEMBL document CHEMBL4000241, “Investigation of the anti-angiogenesis effects induced by deoxypodophyllotoxin-5-FU conjugate C069 against HUVE cells” (Bioorg Med Chem Lett, 2017).

Activity calls are given as the source filed them. No cut-off for these calls is given here.

The subject of data set [1] is WI-38. The experiment in a line: Antiproliferative activity against human WI38 cells at 30 uM after 12 to 48 hrs by MTT assay. Format: cell-based. The conditions noted are these: wi-38, 30 µM.
For data set [2], the system named is WI-38. The experiment in a line: Antiproliferative activity against human WI38 cells at 20 to 100 uM after 12 to 48 hrs by MTT assay. It is filed as cell-based. The following applies: wi-38, 100 µM. For orientation: Tetrazolium dyes change colour on reduction, which living cells bring about.
The test system of data set [3] is HUVEC. The data set is described as follows: Antimigratory activity in HUVEC assessed as reduction in wound-healing at 0.1 to 0.3 uM after 12 hrs by inverted phase contrast microscopy. Format: functional, cell-based. The conditions noted are these: Homo sapiens.
In data set [4] the test system is HUVEC. The experiment in a line: Antiangiogenic activity in HUVEC assessed as inhibition of formation of tubular structures after 6 hrs by inverted phase contrast microscopy based matrigel assay. It is filed as functional, cell-based. The following applies: Homo sapiens.
Data set [5] relates to HUVEC. The data set is described as follows: Antiproliferative activity against HUVEC at 0.1 to 0.3 uM after 6 hrs by MTT assay. The following applies: Homo sapiens. Format: functional, cell-based.
A further data set has as its system Chorioallantoic membrane. The experiment in a line: Antiangiogenic activity in chicken fertilized egg chorioallantoic membrane assessed as reduction in branching of blood vessels after 48 hrs. It is filed as functional, tissue-based. The following applies: Gallus gallus.
Data set [6] concerns HUVEC. The data set is described as follows: Vascular disrupting activity in HUVEC assessed as disruption of preformed tube like structure after 6 hrs by inverted phase contrast microscopy based matrigel assay. Format: functional, cell-based. The conditions noted are these: Homo sapiens.
Data set [7] has as its system HUVEC. The data set is described as follows: Downregulation of MMP-9 expression in HUVEC at 0.2 to 0.5 uM after 24 hrs by Western blot analysis. It is filed as functional, cell-based. The conditions noted are these: Homo sapiens. (In general: In western blotting, separated proteins are transferred to a membrane and probed.)
Data set [8] concerns HUVEC. The experiment in a line: Downregulation of MMP-2 expression in HUVEC at 0.2 to 0.5 uM after 24 hrs by Western blot analysis. The conditions noted are these: Homo sapiens. It is filed as functional, cell-based.
In data set [9] the target is T1, Catenin beta-1 (Homo sapiens) (UniProt P35222).
T1 sequence (whole entry): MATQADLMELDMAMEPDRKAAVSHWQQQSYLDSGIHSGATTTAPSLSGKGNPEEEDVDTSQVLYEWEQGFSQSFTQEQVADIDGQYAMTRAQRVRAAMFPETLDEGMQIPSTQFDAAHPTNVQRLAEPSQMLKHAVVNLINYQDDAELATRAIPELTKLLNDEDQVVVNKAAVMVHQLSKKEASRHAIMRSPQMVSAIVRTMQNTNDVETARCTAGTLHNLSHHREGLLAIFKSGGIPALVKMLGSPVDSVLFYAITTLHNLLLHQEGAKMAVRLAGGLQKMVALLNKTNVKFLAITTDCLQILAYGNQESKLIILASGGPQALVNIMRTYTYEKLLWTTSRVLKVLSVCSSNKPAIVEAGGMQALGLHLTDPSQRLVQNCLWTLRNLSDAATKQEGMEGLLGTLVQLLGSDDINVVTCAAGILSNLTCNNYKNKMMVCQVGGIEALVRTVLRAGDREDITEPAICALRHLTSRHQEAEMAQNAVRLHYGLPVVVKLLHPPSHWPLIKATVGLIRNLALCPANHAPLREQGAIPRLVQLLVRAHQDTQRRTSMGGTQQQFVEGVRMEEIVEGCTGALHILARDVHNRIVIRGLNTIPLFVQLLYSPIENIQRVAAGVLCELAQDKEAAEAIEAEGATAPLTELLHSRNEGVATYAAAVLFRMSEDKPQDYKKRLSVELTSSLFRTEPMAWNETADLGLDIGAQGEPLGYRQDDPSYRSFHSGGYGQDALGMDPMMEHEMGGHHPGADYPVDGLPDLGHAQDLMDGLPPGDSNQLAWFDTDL
The data set is described as follows: Inhibition of beta-catenin phosphorylation in HUVEC after 24 hrs by Western blot analysis.

The species entered for another data set is Homo sapiens. The experiment in a line: Inhibition of Akt phosphorylation in HUVEC after 24 hrs by Western blot analysis.

Take `COc1cc([C@@H]2c3cc4c(cc3[C@@H](O[C@@H]3O[C@@H]5CO[C@@H](C)O[C@H]5[C@H](O)[C@H]3O)[C@H]3COC(=O)[C@H]23)OCO4)cc(OC)c1O` [ETOPOSIDE]: the Activity result with WI-38 [1] was “Non-Toxic”.

On to `COc1cc([C@@H]2c3cc4c(cc3C[C@H]3COC(=O)[C@@H]32)OCO4)cc(OC)c1OC(=O)CCC(=O)NCCCCCCNC(=O)Cn1cc(F)c(=O)[nH]c1=O`, for which the Activity entry was “Non-Toxic” in the data set with WI-38 [2], “Dose-dependent effect” in the data set with HUVEC [4], “Dose-dependent effect” in the data set with Chorioallantoic membrane and “Dose-dependent effect” with HUVEC [6]. Besides, the result in the data set with HUVEC [3], in the data set with HUVEC [5], in the data set on HUVEC [7] and in the data set with HUVEC [8] was Active. Further, the inhibition entry (in data set [9]; in the data set filed under Homo sapiens) was “Dose-dependent effect” throughout.
